Source: US8309552B2, “Immunomodulating heterocyclic compounds” (Medigene AG, priority 2003, dated 2012)

Target: T1, CD80-CD28 interaction (Homo sapiens, UniProt P33681)
T1 sequence (P33681 35-242 limits assumed): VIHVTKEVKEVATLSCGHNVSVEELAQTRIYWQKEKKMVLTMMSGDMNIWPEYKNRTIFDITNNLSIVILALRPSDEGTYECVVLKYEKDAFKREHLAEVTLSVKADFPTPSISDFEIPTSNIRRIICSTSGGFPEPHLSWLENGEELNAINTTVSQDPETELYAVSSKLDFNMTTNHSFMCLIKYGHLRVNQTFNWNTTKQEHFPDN
Experiment: Homogenous Time Resolved Fluorescence (HTRF) assay, cell free
Type: binding
Settings: cell-free HTRF, compound concentration series 100 μM-1.7 nM, 4 hours at room temperature; read-out: Activity (EC50 in the HTRF assay)
Protocol: Homogenous Time Resolved Fluorescence Assay
The examples described above were tested in a cell free Homogenous Time Resolved Fluorescence (HTRF) assay to determine their activity as inhibitors of the CD80-CD28 interaction.
In the assay, europium and allophycocyanin (APC) are associated with CD28 and CD80 indirectly (through antibody linkers) to form a complex, which brings the europium and APC into close proximity to generate a signal. The complex comprises the following six proteins: fluorescent label 1, linker antibody 1, CD28 fusion protein, CD80 fusion protein, linker antibody 2, and fluorescent label 2. The table below describes these reagents in greater detail.
On formation of the complex, europium and APC are brought into proximity and a signal is generated.
Non-specific interaction was measured by substituting a mouse Fab fragment (C215) for the CD80 mouse Fab fragment fusion protein (1.9 μg/ml). The assay was carried out in black 384 well plates in a final volume of 30 μl. Assay buffer: 50 mM Tris-HCl, 150 mM NaCl pH7.8, containing 0.1% BSA (w/v) added just prior to use.
Compounds were added to the above reagents in a concentration series ranging between 100 μM-1.7 nM. The reaction was incubated for 4 hours at room temperature. Dual measurements were made using a Wallac Victor 1420 Multilabel Counter. First measurement: excitation 340 nm, emission 665 nm, delay 50 μs, window time 200 μs. second measurement: excitation 340 nm, emission 615 nm, delay 50 μs, window time 200 μs. Counts were automatically corrected for fluorescence crossover, quenching and background. The EC50 activities of compounds tested are recorded as: EC50:*=>10 μM,**=1-10 μM,***=<1 μM.

Compound	EC50 [µM]
CC(C)CCC(C)NC(=O)c1ccc(-n2[nH]c3c(nnc4ccccc43)c2=O)cc1 (stereo not shown) [Example 96]	1 to 10
CN(CCNC(=O)c1ccc(-n2[nH]c3c(nnc4ccccc43)c2=O)cc1)C(=O)OC(C)(C)C [Example 97]	1 to 10
O=C(Nc1ccc(N2CCCCC2)cc1)c1ccc(-n2[nH]c3c(nnc4ccccc43)c2=O)cc1 [Example 98]	1 to 10
CC(CCCC(C)(C)O)NC(=O)c1ccc(-n2[nH]c3c(nnc4ccccc43)c2=O)cc1 (stereo not shown) [Example 99]	1 to 10
CC(C)(C)OC(=O)N1CCN(CCNC(=O)c2ccc(-n3[nH]c4c(nnc5ccccc54)c3=O)cc2)CC1 [Example 101]	< 1
O=C(NCCN1CCNCC1)c1ccc(-n2[nH]c3c(nnc4ccccc43)c2=O)cc1 [Example 102]	1 to 10
CC1(C)CC(NC(=O)c2ccc(-n3[nH]c4c(nnc5ccccc54)c3=O)cc2)CC(C)(C)N1 [Example 103]	< 1
CCOC(=O)N1CCC(NC(=O)c2ccc(-n3[nH]c4c(nnc5ccccc54)c3=O)cc2)CC1 [Example 104]	1 to 10
CC(CCc1ccccc1)NC(=O)c1ccc(-n2[nH]c3c(nnc4ccccc43)c2=O)cc1 (stereo not shown) [Example 105]	> 10
COC(CNC(=O)c1ccc(-n2[nH]c3c(nnc4ccccc43)c2=O)cc1)OC [Example 106]	1 to 10
CCC(C)CNC(=O)c1ccc(-n2[nH]c3c(nnc4ccccc43)c2=O)cc1 (stereo not shown) [Example 107]	1 to 10
CC(C)NCCNC(=O)c1ccc(-n2[nH]c3c(nnc4ccccc43)c2=O)cc1 [Example 108]	< 1
O=C(NCCNCCO)c1ccc(-n2[nH]c3c(nnc4ccccc43)c2=O)cc1 [Example 109]	< 1
CC(C)NCCCNC(=O)c1ccc(-n2[nH]c3c(nnc4ccccc43)c2=O)cc1 [Example 110]	< 1
O=C(NCCCO)c1ccc(-n2[nH]c3c(nnc4ccccc43)c2=O)cc1 [Example 111]	1 to 10
O=C(NCCCCCO)c1ccc(-n2[nH]c3c(nnc4ccccc43)c2=O)cc1 [Example 112]	< 1
CCCCCCNC(=O)c1ccc(-n2[nH]c3c(nnc4ccccc43)c2=O)cc1 [Example 113]	1 to 10
NS(=O)(=O)c1ccc(CCNC(=O)c2ccc(-n3[nH]c4c(nnc5ccccc54)c3=O)cc2)cc1 [Example 114]	1 to 10
COC(=O)CNC(=O)c1ccc(-n2[nH]c3c(nnc4ccccc43)c2=O)cc1 [Example 115]	1 to 10
CCOC(=O)CCNC(=O)c1ccc(-n2[nH]c3c(nnc4ccccc43)c2=O)cc1 [Example 116]	> 10

Compound	EC50 [µM]
CC(C)(C)OC(=O)NCCCCCCNC(=O)c1ccc(-n2[nH]c3c(nnc4ccccc43)c2=O)cc1 [Example 117]	1 to 10
CCOC(=O)C(C)NC(=O)c1ccc(-n2[nH]c3c(nnc4ccccc43)c2=O)cc1 (stereo not shown) [Example 118]	1 to 10
COCC(C)NC(=O)c1ccc(-n2[nH]c3c(nnc4ccccc43)c2=O)cc1 (stereo not shown) [Example 119]	1 to 10
CC(NC(=O)c1ccc(-n2[nH]c3c(nnc4ccccc43)c2=O)cc1)C1CCCCC1 (stereo not shown) [Example 120]	1 to 10
CC1C(NC(=O)c2ccc(-n3[nH]c4c(nnc5ccccc54)c3=O)cc2)CC2CC1C2(C)C (stereo not shown) [Example 121]	1 to 10
CC1C(NC(=O)c2ccc(-n3[nH]c4c(nnc5ccccc54)c3=O)cc2)CC2CC1C2(C)C (stereo not shown) [Example 122]	> 10
O=C(Nc1ccc(-n2[nH]c3c(nnc4ccccc43)c2=O)cc1)NC1CCN(Cc2ccccc2)CC1 [Example 123]	1 to 10
CC(C)CC(C)NC(=O)Nc1ccc(-n2[nH]c3c(nnc4ccccc43)c2=O)cc1 (stereo not shown) [Example 124]	> 10
O=C(NCCN1CCCCC1)Nc1ccc(-n2[nH]c3c(nnc4ccccc43)c2=O)cc1 [Example 125]	1 to 10
O=C(NCc1ccc(F)cc1)Nc1ccc(-n2[nH]c3c(nnc4ccccc43)c2=O)cc1 [Example 126]	> 10
O=C(Nc1ccc(-n2[nH]c3c(nnc4ccccc43)c2=O)cc1)NC1CCCCC1 [Example 127]	> 10
CCOCCCNC(=O)Nc1ccc(-n2[nH]c3c(nnc4ccccc43)c2=O)cc1 [Example 128]	1 to 10
CN1CCN(CCCNC(=O)Nc2ccc(-n3[nH]c4c(nnc5ccccc54)c3=O)cc2)CC1 [Example 129]	< 1
CN(C)CCNC(=O)Nc1ccc(-n2[nH]c3c(nnc4ccccc43)c2=O)cc1 [Example 130]	< 1
C=CCNC(=O)Nc1ccc(-n2[nH]c3c(nnc4ccccc43)c2=O)cc1 [Example 131]	< 1
O=C(NCCN1CCOCC1)Nc1ccc(-n2[nH]c3c(nnc4ccccc43)c2=O)cc1 [Example 132]	< 1
COCCCNC(=O)Nc1ccc(-n2[nH]c3c(nnc4ccccc43)c2=O)cc1 [Example 133]	1 to 10
O=C(NCCCNC1CCCCC1)Nc1ccc(-n2[nH]c3c(nnc4ccccc43)c2=O)cc1 [Example 134]	< 1
CN1C(C)(C)CC(NC(=O)Nc2ccc(-n3[nH]c4c(nnc5ccccc54)c3=O)cc2)CC1(C)C [Example 135]	1 to 10
CC(CCCC(C)(C)O)NC(=O)Nc1ccc(-n2[nH]c3c(nnc4ccccc43)c2=O)cc1 (stereo not shown) [Example 137]	1 to 10

Compound	EC50 [µM]
CC(C)CNC(=O)Nc1ccc(-n2[nH]c3c(nnc4ccccc43)c2=O)cc1 [Example 138]	1 to 10
COCCNC(=O)Nc1ccc(-n2[nH]c3c(nnc4ccccc43)c2=O)cc1 [Example 140]	1 to 10
CC(C)NCCNC(=O)Nc1ccc(-n2[nH]c3c(nnc4ccccc43)c2=O)cc1 [Example 141]	< 1
CNCCNC(=O)Nc1ccc(-n2[nH]c3c(nnc4ccccc43)c2=O)cc1 [Example 142]	< 1
CCNCCNC(=O)Nc1ccc(-n2[nH]c3c(nnc4ccccc43)c2=O)cc1 [Example 143]	< 1
CCCNCCNC(=O)Nc1ccc(-n2[nH]c3c(nnc4ccccc43)c2=O)cc1 [Example 144]	< 1
O=C(NCCOCCO)Nc1ccc(-n2[nH]c3c(nnc4ccccc43)c2=O)cc1 [Example 145]	< 1
O=C(NCCO)Nc1ccc(-n2[nH]c3c(nnc4ccccc43)c2=O)cc1 [Example 146]	< 1
O=C(NCCc1ccccc1)Nc1ccc(-n2[nH]c3c(nnc4ccccc43)c2=O)cc1 [Example 147]	1 to 10
CC(C)NCCCNC(=O)Nc1ccc(-n2[nH]c3c(nnc4ccccc43)c2=O)cc1 [Example 148]	< 1
CC(C)OCCCNC(=O)Nc1ccc(-n2[nH]c3c(nnc4ccccc43)c2=O)cc1 [Example 149]	1 to 10
O=C(NCCCO)Nc1ccc(-n2[nH]c3c(nnc4ccccc43)c2=O)cc1 [Example 150]	< 1
O=C(NCCCCCO)Nc1ccc(-n2[nH]c3c(nnc4ccccc43)c2=O)cc1 [Example 151]	1 to 10
O=C(NCCNc1cccc2ccccc12)Nc1ccc(-n2[nH]c3c(nnc4ccccc43)c2=O)cc1 [Example 152]	> 10
O=C(Nc1ccc(-n2[nH]c3c(nnc4ccccc43)c2=O)cc1)NC1CCOC1=O (stereo not shown) [Example 153]	1 to 10
COC(=O)CNC(=O)Nc1ccc(-n2[nH]c3c(nnc4ccccc43)c2=O)cc1 [Example 154]	1 to 10
O=C(NCCc1ccc([N+](=O)[O-])cc1)Nc1ccc(-n2[nH]c3c(nnc4ccccc43)c2=O)cc1 [Example 155]	1 to 10
CCOC(=O)CCNC(=O)Nc1ccc(-n2[nH]c3c(nnc4ccccc43)c2=O)cc1 [Example 156]	1 to 10
